In PubChem BioAssay (NCI):
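Compound exposure: 48 hours, 5 concentrations, 96-well plates. At the TGI there is no net growth.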

Assays:
Test in all cases: DTP human tumour cell line panel, 48 h
CAKI-1 renal = tested on: CAKI-1 renal
SK-MEL-2 melanoma = tested on: SK-MEL-2 melanoma
ACHN renal = tested on: ACHN renal
SF-268 CNS = tested on: SF-268 CNS
SF-295 CNS = tested on: SF-295 CNS
OVCAR-5 ovarian = tested on: OVCAR-5 ovarian
HT29 colon = tested on: HT29 colon
EKVX NSCLC = tested on: EKVX NSCLC
RXF 393 renal = tested on: RXF 393 renal
HS 578T breast = tested on: HS 578T breast
MCF7 breast = tested on: MCF7 breast
IGROV1 ovarian = tested on: IGROV1 ovarian
NCI-H23 lung = tested on: NCI-H23 lung
T-47D breast = tested on: T-47D breast
SR leukemia = tested on: SR leukemia

SMILES	TGI (CAKI-1 renal)	TGI (SK-MEL-2 melanoma)	TGI (ACHN renal)	TGI (SF-268 CNS)	TGI (SF-295 CNS)	TGI (OVCAR-5 ovarian)	TGI (HT29 colon)	TGI (EKVX NSCLC)	TGI (RXF 393 renal)	TGI (HS 578T breast)	TGI (MCF7 breast)	TGI (IGROV1 ovarian)	TGI (NCI-H23 lung)	TGI (T-47D breast)	TGI (SR leukemia)
CC1=C(C)SC(=C2Sc3c(n(C)c(=O)[nH]c3=O)S2)S1	> 100 µM	> 100 µM	> 100 µM	> 100 µM	> 100 µM	> 100 µM	> 100 µM	> 100 µM	> 100 µM	> 100 µM	> 100 µM	> 100 µM	> 100 µM	> 100 µM	–
NC(=S)SCCC(=O)O	> 100 µM	> 100 µM	> 100 µM	> 100 µM	> 100 µM	> 100 µM	> 100 µM	> 100 µM	–	> 100 µM	> 100 µM	> 100 µM	> 100 µM	> 100 µM	–
COc1cc(-c2c[nH]c3ccccc23)nc(-c2c[nH]c3ccccc23)n1	20.7 µM	16.2 µM	8.46 µM	30.7 µM	12.7 µM	22.1 µM	13.4 µM	19 µM	–	68 µM	14.9 µM	13.6 µM	–	23.9 µM	22.1 µM
COC(C)(C)C(O)C(O)C[C@H](C)C1CC=C2C1(C)CCC1[C@@]3(C)CCC(OC(C)=O)C(C)(C)C3CC(OC3OC(COC(C)=O)C(O)C(O)C3O)[C@@]21C (stereo partly drawn)	> 10 µM	–	> 10 µM	> 10 µM	> 10 µM	> 10 µM	9.01 µM	> 10 µM	> 10 µM	> 10 µM	> 10 µM	8.04 µM	> 10 µM	8.73 µM	–
O=C1CN(c2cccc(C(F)(F)F)c2)C(=O)CN1NCNN1CC(=O)N(c2cccc(C(F)(F)F)c2)CC1=O	–	–	> 100 µM	> 100 µM	> 100 µM	> 100 µM	> 100 µM	> 100 µM	–	> 100 µM	> 100 µM	> 100 µM	–	> 100 µM	> 100 µM
CC(=O)O[C@H]1CC[C@H]2[C@@H]3CCc4cc(O)c(I)cc4[C@H]3CC[C@]12C	29.7 µM	37.3 µM	28.1 µM	28.4 µM	28.6 µM	32.2 µM	33.2 µM	26.8 µM	–	31.9 µM	33.8 µM	30.5 µM	27.4 µM	31.7 µM	> 100 µM
CC1CCCOc2ccc(cc2)C=Nc2ccc(cc2)CCc2ccc(cc2)N=Cc2ccc(cc2)OCCC1 (stereo not drawn)	> 100 µM	> 100 µM	> 100 µM	> 100 µM	> 100 µM	> 100 µM	> 100 µM	> 100 µM	–	> 100 µM	> 100 µM	> 100 µM	> 100 µM	–	> 100 µM
Cc1ccc(S(=O)(=O)Nn2c(-c3ccccc3)c(C#N)c(-c3ccc(Cl)cc3)c(C#N)c2=O)cc1	> 100 µM	52.4 µM	> 100 µM	–	> 100 µM	> 100 µM	–	–	> 100 µM	–	> 100 µM	–	–	–	–
O=C1CCC(=O)N1CNc1ccc2c(c1)Sc1ccccc1O2	> 100 µM	40.6 µM	> 100 µM	> 100 µM	> 100 µM	> 100 µM	54.7 µM	75.4 µM	79.9 µM	> 100 µM	> 100 µM	> 100 µM	> 100 µM	> 100 µM	–
CCCCCCNC(=O)c1cc(NCc2cc(OC)ccc2OC)ccc1O	98 µM	45.8 µM	> 100 µM	32.3 µM	30.1 µM	> 100 µM	85.2 µM	63.1 µM	56.5 µM	97.9 µM	53.5 µM	55 µM	80.6 µM	46.1 µM	–
COC(=O)c1cc(NC2OCC(OC(C)=O)C(OC(C)=O)C2OC(C)=O)nc(SC)c1C(=O)OC (stereo not drawn)	> 100 µM	> 100 µM	> 100 µM	> 100 µM	> 100 µM	> 100 µM	> 100 µM	> 100 µM	–	> 100 µM	> 100 µM	> 100 µM	> 100 µM	> 100 µM	> 100 µM
COC(=O)c1cc(C)ccc1/C=C1\Cc2cc(C)c(C)cc2C1=O	> 100 µM	> 100 µM	> 100 µM	> 100 µM	> 100 µM	> 100 µM	> 100 µM	> 100 µM	> 100 µM	> 100 µM	–	> 100 µM	> 100 µM	> 100 µM	> 100 µM
CCOC(=O)C1C(=O)CC(C)(O)C(C(=O)OCC)C1c1ccc(N(C)C)cc1 (stereo not drawn)	> 100 µM	> 100 µM	> 100 µM	> 100 µM	> 100 µM	> 100 µM	> 100 µM	> 100 µM	> 100 µM	–	> 100 µM	> 100 µM	> 100 µM	> 100 µM	> 100 µM
O=C(O)c1ccc(Nc2ccnc3cc(Cl)ccc23)cc1O	> 100 µM	> 100 µM	> 100 µM	> 100 µM	> 100 µM	> 100 µM	> 100 µM	> 100 µM	> 100 µM	> 100 µM	> 100 µM	> 100 µM	> 100 µM	> 100 µM	–
CC1CC(N)=Nc2ccccc2N1Cc1ccccc1 (stereo not drawn)	25.2 µM	27.4 µM	28.5 µM	26.4 µM	27.8 µM	> 100 µM	27.4 µM	63.9 µM	24.4 µM	23.8 µM	–	19.9 µM	31.1 µM	–	–
CN(C)c1ccc(N=Nc2cccc3ccoc23)cc1	> 100 µM	> 100 µM	> 100 µM	> 100 µM	> 100 µM	> 100 µM	> 100 µM	> 100 µM	> 100 µM	> 100 µM	–	> 100 µM	> 100 µM	> 100 µM	> 76.1 µM
